System: wild-type EBOV Mayinga

| Compound | relative potency | IC50 times higher than both TAT-EBO-PEG4-Chol and TAT-EBO-dPEG4-Chol |
| --- | --- | --- |
| CC[C@H](C)[C@H](NC(=O)CNC(=O)[C@H](CO)NC(=O)CNC(=O)[C@H](CCCNC(=N)N)NC(=O)[C@H](CCCNC(=N)N)NC(=O)[C@H](CCCNC(=N)N)NC(=O)[C@H](CCC(N)=O)NC(=O)[C@H](CCCNC(=N)N)NC(=O)[C@H](CCCNC(=N)N)NC(=O)[C@H](CCCCN)NC(=O)[C@H](CCCCN)NC(=O)[C@H](CCCNC(=N)N)NC(=O)CNC(=O)[C@H](Cc1ccc(O)cc1)NC(C)=O)C(=O)N[C@@H](C)C(=O)N[C@@H](C)C(=O)N[C@H](C(=O)N[C@@H](CC(C)C)C(=O)N1CCC[C@H]1C(=O)N[C@@H](Cc1c[nH]cn1)C(=O)N[C@@H](CC(=O)O)C(=O)N[C@@H](Cc1c[nH]c2ccccc12)C(=O)N[C@H](C(=O)N[C@@H](CCCCN)C(=O)N[C@@H](CC(N)=O)C(=O)N[C@H](C(=O)N[C@H](C(=O)N[C@@H](CC(=O)O)C(=O)N[C@@H](CCCCN)C(=O)N[C@H](C(=O)N[C@@H](CC(=O)O)C(=O)N[C@@H](CCC(N)=O)C(=O)N[C@H](C(=O)N[C@H](C(=O)N[C@@H](Cc1c[nH]cn1)C(=O)N[C@@H](CC(=O)O)C(=O)N[C@@H](Cc1ccccc1)C(=O)N[C@H](C(=O)N[C@@H](CC(=O)O)C(=O)N[C@@H](CCCCN)C(=O)NCC(=O)N[C@@H](CO)C(=O)NCC(=O)N[C@@H](CO)C(=O)NCC(=O)N[C@@H](CSCC(=O)O[C@H]1CC[C@@]2(C)C(=CC[C@H]3[C@@H]4CC[C@H]([C@H](C)CCCC(C)C)[C@@]4(C)CC[C@@H]32)C1)C(N)=O)C(C)C)[C@@H](C)CC)[C@@H](C)CC)[C@@H](C)CC)[C@@H](C)O)[C@@H](C)CC)[C@@H](C)O)[C@@H](C)CC [TAT-EBO-IAAILP-Chol] | the most potent peptide we designed so far |  |
| CC[C@H](C)[C@H](NC(=O)CNC(=O)[C@H](CO)NC(=O)CNC(=O)[C@H](CCCNC(=N)N)NC(=O)[C@H](CCCNC(=N)N)NC(=O)[C@H](CCCNC(=N)N)NC(=O)[C@H](CCC(N)=O)NC(=O)[C@H](CCCNC(=N)N)NC(=O)[C@H](CCCNC(=N)N)NC(=O)[C@H](CCCCN)NC(=O)[C@H](CCCCN)NC(=O)[C@H](CCCNC(=N)N)NC(=O)CNC(=O)[C@H](Cc1ccc(O)cc1)NC(C)=O)C(=O)N[C@@H](C)C(=O)N[C@@H](C)C(=O)N[C@H](C(=O)N[C@@H](CC(C)C)C(=O)N1CCC[C@H]1C(=O)N[C@@H](Cc1c[nH]cn1)C(=O)N[C@@H](CC(=O)O)C(=O)N[C@@H](Cc1c[nH]c2ccccc12)C(=O)N[C@H](C(=O)N[C@@H](CCCCN)C(=O)N[C@@H](CC(N)=O)C(=O)N[C@H](C(=O)N[C@H](C(=O)N[C@@H](CC(=O)O)C(=O)N[C@@H](CCCCN)C(=O)N[C@H](C(=O)N[C@@H](CC(=O)O)C(=O)N[C@@H](CCC(N)=O)C(=O)N[C@H](C(=O)N[C@H](C(=O)N[C@@H](Cc1c[nH]cn1)C(=O)N[C@@H](CC(=O)O)C(=O)N[C@@H](Cc1ccccc1)C(=O)N[C@H](C(=O)N[C@@H](CC(=O)O)C(=O)N[C@@H](CCCCN)C(=O)NCC(=O)N[C@@H](CO)C(=O)NCC(=O)N[C@@H](CO)C(=O)NCC(=O)N[C@@H](CSCC(=O)NCCOCCOCCOCCOCCC(=O)O[C@H]1CC[C@@]2(C)C(=CC[C@H]3[C@@H]4CC[C@H]([C@H](C)CCCC(C)C)[C@@]4(C)CC[C@@H]32)C1)C(N)=O)C(C)C)[C@@H](C)CC)[C@@H](C)CC)[C@@H](C)CC)[C@@H](C)O)[C@@H](C)CC)[C@@H](C)O)[C@@H](C)CC [TAT-EBO-IAAILP-PEG4-Chol] |  | around 10 times |

Source: patent publication US20230159597A1 (priority 2020, published 2023)
